Five compounds from US12209102B2, “Heterocyclic compounds and uses thereof” (Kumquat Biosciences Inc., priority 2022, dated 2025) can be followed below.

The term IC50 denotes the midpoint of a concentration-inhibition curve.

In one assay the target is T1, K-Ras WT (Homo sapiens, UniProt P01116).
T1 construct: made in house; host or cells: E. coli BL21 (DE3)
The assay can be described thus: HTRF resonance energy transfer assay, K-Ras WT / SOS1 interaction. The class given is biochemical. The note with it: HTRF assay of Example 5; read-out: IC50 against K-Ras WT. A digest of the protocol: (§1)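 GST-tagged K-Ras (WT or mutant) bound to anti-GST-Eu donor was mixed with His-hSOS1 bound to anti-6His-XL665 acceptor in ~5 mM HEPES pH 7.4, 150 mM NaCl, 1 mM DTT, 0.05% BSA, 0.0025% Igepal. HTRF (ex 337, em 620/665 nm) was read after ~10 min or longer. IC50 came from the 665/620 ratio over duplicates from 10 μM to 0.01 μM.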
In general terms: TR-FRET usually uses a lanthanide donor and a delayed reading to cut background.

A further assay addresses T2, K-Ras G12D (Homo sapiens, UniProt P01116, G12D).
T2 construct: made in house; host or cells: E. coli BL21 (DE3)
Briefly: HTRF resonance energy transfer assay, K-Ras G12D / SOS1 interaction. Type of assay: biochemical. Conditions: HTRF assay of Example 5; read-out: IC50 against K-Ras G12D. A digest of the protocol:
as §1

The next assay addresses T3, K-Ras G12V (Homo sapiens, UniProt P01116, G12V).
T3 construct: made in house; host or cells: E. coli BL21 (DE3)
The assay can be described thus: HTRF resonance energy transfer assay, K-Ras G12V / SOS1 interaction. Conditions: HTRF assay of Example 5; read-out: IC50 against K-Ras G12V. The class given is biochemical. The method, boiled down:
as §1

A further assay addresses T4, K-Ras G12S (Homo sapiens, UniProt P01116, G12S).
T4 construct: made in house; host or cells: E. coli BL21 (DE3)
The assay can be described thus: HTRF resonance energy transfer assay, K-Ras G12S / SOS1 interaction. Type of assay: biochemical. Conditions: HTRF assay of Example 5; read-out: IC50 against K-Ras G12S. The method, boiled down:
as §1

For another assay, the system named is SW620 cells. Briefly: Ras cellular assay, growth of cells with K-Ras G12V mutation (CellTiter-Glo). The class given is cell-based. Conditions: Homo sapiens, SW-620; cell growth, Example 9, G12V mutation; read-out: IC50 against SW620 cells. The method, boiled down: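 SW620 (K-Ras G12V) cells, e.g. 800/well in RPMI-1640 with 10% heat-inactivated FBS on standard or ultra-low attachment plates, were dosed the day after plating with e.g. a 10-point 3-fold series. Viability by CellTiter-Glo luminescence about 6 days later; IC50 from four-parameter fit.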

A further assay has as its system A549 cells. The assay can be described thus: Ras cellular assay, growth of cells with K-Ras G12S mutation (CellTiter-Glo). Conditions: Homo sapiens, cell growth, Example 9, G12S mutation, read-out: IC50 against A549 cells. The class given is cell-based. A digest of the protocol:
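A549 cells (K-Ras G12S) in RPMI-1640 with 10% heat-inactivated FBS, seeded e.g. 800 per well in standard or ultra-low-attachment 384-well plates, treated next day with a dilution series (e.g. 10-point, 3-fold). Viability by CellTiter-Glo luminescence about 6 days later; IC50 from four-parameter fit.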

T1 sequence (P01116 1-188 isoform P01116-2): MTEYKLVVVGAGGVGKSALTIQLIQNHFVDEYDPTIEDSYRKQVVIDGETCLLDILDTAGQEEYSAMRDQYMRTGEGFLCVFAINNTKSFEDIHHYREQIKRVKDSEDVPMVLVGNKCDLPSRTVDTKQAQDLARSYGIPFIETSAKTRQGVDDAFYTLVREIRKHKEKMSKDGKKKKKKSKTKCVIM
T3 sequence (P01116 1-188 isoform P01116-2 G12V): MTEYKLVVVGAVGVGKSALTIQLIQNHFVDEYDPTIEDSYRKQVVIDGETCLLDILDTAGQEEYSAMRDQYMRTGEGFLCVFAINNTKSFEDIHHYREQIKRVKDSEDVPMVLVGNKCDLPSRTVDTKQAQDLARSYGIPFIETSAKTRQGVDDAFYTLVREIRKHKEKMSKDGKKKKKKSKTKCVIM
T2 sequence (P01116 1-188 isoform P01116-2 G12D): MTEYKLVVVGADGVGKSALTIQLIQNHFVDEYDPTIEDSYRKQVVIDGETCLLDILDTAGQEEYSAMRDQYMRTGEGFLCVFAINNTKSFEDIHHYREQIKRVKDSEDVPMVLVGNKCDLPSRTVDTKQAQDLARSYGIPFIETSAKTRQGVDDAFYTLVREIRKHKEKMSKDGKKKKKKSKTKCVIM
T4 sequence (P01116 1-188 isoform P01116-2 G12S): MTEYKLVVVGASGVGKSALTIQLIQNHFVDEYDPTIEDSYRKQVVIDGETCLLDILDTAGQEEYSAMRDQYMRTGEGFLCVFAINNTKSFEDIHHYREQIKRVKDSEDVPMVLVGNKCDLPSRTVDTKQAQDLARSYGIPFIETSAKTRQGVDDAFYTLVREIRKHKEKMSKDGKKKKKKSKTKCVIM

For `COC1CCCC1N1CCOc2c(Cl)c(-c3ccc(F)c4sc(N)c(C#N)c34)c(F)c3nc(OC[C@@]45CCCN4C[C@H](F)C5)nc1c23` (stereo partly drawn) [Compound 657, 2-amino-4-(8-chloro-10-fluoro-2-(((2R,7aS)-2-fluorotetrahydro-1H-pyrrolizin-7a(5H)-yl)methoxy)-4-(2-methoxycyclopentyl)-5,6-dihydro-4H-[1,4]oxazepino[5,6,7-de]quinazolin-9-yl)-7-fluorobenzo[b]thiophene-3-carbonitrile], the IC50 at K-Ras WT was below 0.1 µM; on K-Ras G12D, below 0.1 µM; at K-Ras G12V it was below 0.1 µM; at K-Ras G12S, below 0.1 µM; in the assay with SW620 cells it was below 5 µM; in the assay on A549 cells, below 5 µM.
Regarding `CC(O)CC1COc2c(Cl)c(-c3ccc(F)c4sc(N)c(C#N)c34)c(F)c3nc(OC[C@@]45CCCN4C[C@H](F)C5)nc(c23)N1CC(F)F` (stereo partly drawn) [Compound 659, 2-amino-4-(8-chloro-4-(2,2-difluoroethyl)-10-fluoro-2-(((2R,7aS)-2-fluorotetrahydro-1H-pyrrolizin-7a(5H)-yl)methoxy)-5-(2-hydroxypropyl)-5,6-dihydro-4H-[1,4]oxazepino[5,6,7-de]quinazolin-9-yl)-7-fluorobenzo[b]thiophene-3-carbonitrile], the IC50 on K-Ras WT is below 0.1 µM; on K-Ras G12D, below 0.1 µM; on K-Ras G12V, below 0.1 µM; on K-Ras G12S, below 0.1 µM; in the assay with SW620 cells, below 5 µM; in the assay on A549 cells it was below 5 µM.
Turning to `COC1CC(N2CCOc3c(Cl)c(-c4ccc(F)c5sc(N)c(C#N)c45)c(F)c4nc(OC[C@@]56CCCN5C[C@H](F)C6)nc2c34)C1` (stereo partly drawn) [Compound 660, 2-amino-4-(8-chloro-10-fluoro-2-(((2R,7aS)-2-fluorotetrahydro-1H-pyrrolizin-7a(5H)-yl)methoxy)-4-(3-methoxycyclobutyl)-5,6-dihydro-4H-[1,4]oxazepino[5,6,7-de]quinazolin-9-yl)-7-fluorobenzo[b]thiophene-3-carbonitrile], the IC50 at K-Ras WT was below 0.1 µM; at K-Ras G12D, below 0.1 µM; on K-Ras G12V, below 0.1 µM; on K-Ras G12S, below 0.1 µM; in the assay with SW620 cells, below 5 µM; with A549 cells, below 5 µM.
Regarding `N#Cc1c(N)sc2c(F)ccc(-c3c(Cl)c4c5c(nc(OC[C@@]67CCCN6C[C@H](F)C7)nc5c3F)N(C3CCC(NC(=O)C(F)F)C3)CCO4)c12` (stereo partly drawn) [Compound 673, N-(3-(9-(2-amino-3-cyano-7-fluorobenzo[b]thiophen-4-yl)-8-chloro-10-fluoro-2-(((2R,7aS)-2-fluorotetrahydro-1H-pyrrolizin-7a(5H)-yl)methoxy)-5,6-dihydro-4H-[1,4]oxazepino[5,6,7-de]quinazolin-4-yl)cyclopentyl)-2,2-difluoroacetamide], the IC50 at K-Ras WT was below 0.1 µM; at K-Ras G12D, below 0.1 µM; at K-Ras G12V, below 0.1 µM; at K-Ras G12S, below 0.1 µM; in the assay with SW620 cells, below 5 µM; in the assay with A549 cells it was below 5 µM.
With `N#Cc1c(N)sc2c(F)ccc(-c3c(Cl)c4c5c(nc(OC[C@@]67CCCN6C[C@H](F)C7)nc5c3F)N(C3CCC(C#N)C3)CCO4)c12` (stereo partly drawn) [Compound 684, 2-amino-4-(8-chloro-4-(3-cyanocyclopentyl)-10-fluoro-2-(((2R,7aS)-2-fluorotetrahydro-1H-pyrrolizin-7a(5H)-yl)methoxy)-5,6-dihydro-4H-[1,4]oxazepino[5,6,7-de]quinazolin-9-yl)-7-fluorobenzo[b]thiophene-3-carbonitrile], the IC50 at K-Ras WT was below 0.1 µM; at K-Ras G12D it was below 0.1 µM; on K-Ras G12V, below 0.1 µM; on K-Ras G12S, below 0.1 µM; in the assay on SW620 cells, below 5 µM; in the assay with A549 cells, below 5 µM.
